This note sets out measurements from publication PMC7893821, “A conserved PI(4,5)P2–binding domain is critical for immune regulatory function of DOCK8” (Life Science Alliance, 2021).

Assay in all cases: isothermal titration calorimetry
Common to all, as to format: binding

The target of assay [1] is T1, DOCK8 DHR-1 domain (Mus musculus, UniProt Q8C147).
T1 construct: DHR-1 domain, residues 558-740, pGEX6P-1, E. coli ArcticExpress DE3; GST tag cut with PreScission for ITC, GST fusion kept in vesicle assays
T1 sequence (Q8C147 558-740): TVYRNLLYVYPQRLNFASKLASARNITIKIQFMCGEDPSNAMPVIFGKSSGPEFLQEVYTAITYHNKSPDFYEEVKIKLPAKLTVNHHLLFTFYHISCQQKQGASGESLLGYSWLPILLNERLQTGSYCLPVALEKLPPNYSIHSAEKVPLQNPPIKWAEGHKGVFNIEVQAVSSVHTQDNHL

Assay [2] addresses T2, DOCK8 DHR-1 domain (Mus musculus, UniProt Q8C147, K576A/R581A).
T2 construct: DHR-1 domain, residues 558-740, pGEX6P-1, E. coli ArcticExpress DE3; GST tag cut with PreScission for ITC, GST fusion kept in vesicle assays
T2 sequence (Q8C147 558-740 K576A/R581A): T1 sequence (Q8C147 558-740) with K19A, R24A
The conditions noted are these: 20 mM Tris-HCl pH 8.0, 16 mM NaCl, 25 °C; GST tag removed.

Assay [3] deals with T3, DOCK8 DHR-1 domain (Mus musculus, UniProt Q8C147, R581A).
T3 construct: DHR-1 domain, residues 558-740, pGEX6P-1, E. coli ArcticExpress DE3; GST tag cut with PreScission for ITC, GST fusion kept in vesicle assays
T3 sequence (Q8C147 558-740 R581A): T1 sequence (Q8C147 558-740) with R24A

Assay [4] concerns the target T4, DOCK8 DHR-1 domain (Mus musculus, UniProt Q8C147, K576A).
T4 construct: DHR-1 domain, residues 558-740, pGEX6P-1, E. coli ArcticExpress DE3; GST tag cut with PreScission for ITC, GST fusion kept in vesicle assays
T4 sequence (Q8C147 558-740 K576A): T1 sequence (Q8C147 558-740) with K19A
The source says:
(§1) isothermal titration calorimetry on DOCK8 DHR-1 domain | Mutations R570A, K576A, and R581A led to two to threefold reduction in the binding affinity

Assay [5] deals with T5, DOCK8 DHR-1 domain (Mus musculus, UniProt Q8C147, R570A).
T5 construct: DHR-1 domain, residues 558-740, pGEX6P-1, E. coli ArcticExpress DE3; GST tag cut with PreScission for ITC, GST fusion kept in vesicle assays
T5 sequence (Q8C147 558-740 R570A): T1 sequence (Q8C147 558-740) with R13A
Text: as §1

One may read the Kd as the concentration at which binding is half-saturated. A higher Kd goes with lower affinity.

Structures are written as SMILES. Substitutions are numbered along the chain they refer to.

As to `CCCCCCCC(=O)OC[C@H](COP(=O)(O)O[C@H]1[C@H](O)[C@@H](OP(=O)(O)O)[C@H](OP(=O)(O)O)[C@@H](OP(=O)(O)O)[C@H]1O)OC(=O)CCCCCCC` [diC8-PI(3,4,5)P3], the affinity at DOCK8 DHR-1 domain [1], expressed as Kd, was 26.9 ± 3 µM.
Turning to `CCCCCCCC(=O)OC[C@H](COP(=O)(O)O[C@@H]1[C@H](O)[C@H](O)[C@@H](OP(=O)(O)O)[C@H](OP(=O)(O)O)[C@H]1O)OC(=O)CCCCCCC` [diC8-PI(4,5)P2], at DOCK8 DHR-1 domain [2], the no binding detected entry is listed as “Consistently, no binding was observed for KARA mutant”. The Kd at DOCK8 DHR-1 domain [3] was determined as 64.2 ± 7.7 µM; at DOCK8 DHR-1 domain [1], 19.5 ± 3.7 µM; at DOCK8 DHR-1 domain [4], 37.1 ± 8 µM; on DOCK8 DHR-1 domain [5] it was 42.9 ± 3.1 µM.
